Assay results published in patent US20160058751A1, “COMPOSITION AND METHOD FOR TREATING CANCER” (CELLWORKS GROUP, INC., priority 2013, published 2016).
Read-outs that look alike come from different tables or passages of the source.

Key:
[1] = plasma, steady-state; cited from earlier work
[2] = system: Hep G2 cells; settings: dose-related; cited from earlier work
[3] = target: T1, ATP citrate lyase (Homo sapiens, UniProt P53396); settings: cited from earlier work
T1 sequence (P53396 1-1101): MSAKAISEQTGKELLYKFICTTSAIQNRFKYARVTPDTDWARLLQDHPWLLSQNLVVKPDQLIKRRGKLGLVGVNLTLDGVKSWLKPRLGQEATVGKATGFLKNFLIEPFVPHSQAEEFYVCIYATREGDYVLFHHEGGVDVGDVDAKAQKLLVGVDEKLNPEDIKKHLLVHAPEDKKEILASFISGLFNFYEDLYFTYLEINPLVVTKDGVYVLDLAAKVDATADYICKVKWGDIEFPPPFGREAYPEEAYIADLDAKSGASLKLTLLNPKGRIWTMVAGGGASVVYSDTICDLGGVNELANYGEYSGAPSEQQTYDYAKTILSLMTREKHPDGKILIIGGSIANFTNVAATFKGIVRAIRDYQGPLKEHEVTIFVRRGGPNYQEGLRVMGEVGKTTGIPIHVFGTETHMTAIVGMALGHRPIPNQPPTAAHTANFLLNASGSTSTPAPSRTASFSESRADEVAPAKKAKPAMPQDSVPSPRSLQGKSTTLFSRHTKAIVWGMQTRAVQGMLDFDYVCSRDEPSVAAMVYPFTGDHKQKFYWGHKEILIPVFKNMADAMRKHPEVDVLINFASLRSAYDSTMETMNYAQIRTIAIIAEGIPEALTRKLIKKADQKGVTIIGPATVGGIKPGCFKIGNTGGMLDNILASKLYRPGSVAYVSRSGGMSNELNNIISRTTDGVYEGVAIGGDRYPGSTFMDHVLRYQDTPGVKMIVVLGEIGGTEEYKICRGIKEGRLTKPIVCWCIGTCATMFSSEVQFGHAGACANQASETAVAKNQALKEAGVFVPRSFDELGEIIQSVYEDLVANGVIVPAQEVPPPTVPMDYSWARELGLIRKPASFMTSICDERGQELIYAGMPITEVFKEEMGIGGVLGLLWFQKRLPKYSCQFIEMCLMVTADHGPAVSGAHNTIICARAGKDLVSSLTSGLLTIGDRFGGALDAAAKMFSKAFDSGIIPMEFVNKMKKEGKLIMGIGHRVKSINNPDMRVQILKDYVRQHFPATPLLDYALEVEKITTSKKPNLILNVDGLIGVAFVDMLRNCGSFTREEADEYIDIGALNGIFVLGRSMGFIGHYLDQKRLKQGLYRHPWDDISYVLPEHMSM

[4] = rats; cited from earlier work
[5] = system: SW48 human colon cancer cell line; assay: CellTiter 96 Aqueous One relative growth assay; type: cell-based; settings: for cell viability (FIG. 87): ARQ-197 up to 3 μM, Atorvastatin up to 40 μM
From the text: The SW48 human colon cancer cell line was procured from ATCC (American Type Culture Collection, Manassas, Va.).

[6] = in vivo, cited from earlier work
[7] = system: HCT116 human colon cancer cell line; assay: CellTiter 96 Aqueous One relative growth assay; settings: for cell viability (FIG. 86): ARQ-197 up to 3 μM
[8] = system: H1650 human lung cancer cell line; assay: CellTiter 96 Aqueous One relative growth assay; type: cell-based; settings: for cell viability (FIG. 85) / cell viability (FIG. 91): ARQ-197 up to 3 μM; for relative growth percentage: BMS-303141 20 μM, alone or both
[9] = system: A549 human lung cancer cell line; assay: CellTiter 96 Aqueous One relative growth assay; type: cell-based; settings: for cell viability (FIG. 84) / cell viability (FIG. 90): ARQ-197 up to 3 μM; for relative growth percentage: BMS-303141 20 μM, alone or both
[10] = cited from earlier work
[11] = system: CaCo-2; settings: cited from earlier work
[12] = multiple species; cited from earlier work
[13] = cited from earlier work; remark: listed apart in the source
[14] = cited from earlier work; remark: listed apart in the source
[15] = XALKORI 250 mg twice daily, cited from earlier work
[16] = in vivo; cited from earlier work
[17] = Sorafenib up to 5 μM, Atorvastatin up to 40 μM
[18] = BMS-303141 up to 20 μM, Sorafenib 3 μM and 5 μM
[19] = single 250 mg radiolabeled dose, healthy subjects
[20] = single 250 mg radiolabeled dose

[O-][n+]1ccccc1 [pyridine N-oxide]
share of the circulating analytes in plasma at steady-state [1]: 9-16%

O=C(O)C[C@](O)(C[C@@H](O)CCCCCCc1ccc(Cl)cc1Cl)C(=O)O [SB-204990, (2R)-2-[(2S)-8-(2,4-dichlorophenyl)-2-hydroxyoctyl]-2-hydroxybutanedioic Acid]
inhibition of cholesterol synthesis [2]: up to 91% | inhibition of fatty acid synthesis [2]: ≤ 82% | direct inhibition of ATP citrate-lyase [3]: does not inhibit | inhibition of cholesterol synthesis [4]: 76% | inhibition of fatty acid synthesis [4]: 39%

CC(C)c1c(C(=O)Nc2ccccc2)c(-c2ccccc2)c(-c2ccc(F)cc2)n1CC[C@@H](O)C[C@@H](O)CC(=O)O [Atorvastatin, (3R,5R)-7-[2-(4-fluorophenyl)-3-phenyl-4-(phenylcarbamoyl)-5-propan-2-ylpyrrol-1-yl]-3,5-dihydroxyheptanoic acid]
cell viability (FIG. 87) [5]: a decrease | cell viability (FIG. 75) ([5]; Sorafenib up to 5 μM, Atorvastatin up to 10 μM): negligible effect | orally administered dose recovered in urine ([6]; po): Less than 2% | circulating inhibitory activity for HMG-CoA reductase attributed to active metabolites [6]: Approximately 70% | systemic availability of the HMG-CoA reductase inhibitory activity [6]: approximately 30% | cell viability (FIG. 86) ([7]; Atorvastatin up to 40 μM): small decrease | cell viability (FIG. 73) [7, 17]: insignificant decrease | cell viability (FIG. 85) ([8]; Atorvastatin up to 40 μM): negligible effect | cell viability (FIG. 72) [8, 17]: negligible decrease | cell viability (FIG. 84) ([9]; Atorvastatin up to 40 μM): a decrease | cell viability (FIG. 71) [9, 17]: negligible decrease

Cn1cncc1[C@@](N)(c1ccc(Cl)cc1)c1ccc2c(c1)c(-c1cccc(Cl)c1)cc(=O)n2C [Tipifamib, 6-[(R)-amino-(4-chlorophenyl)-(3-methylimidazol-4-yl)methyl]-4-(3-chlorophenyl)-1-methylquinolin-2-one]
decrease in relative growth ([7]; Tipifamib 3 μM, Crizotinib 8 μM, alone or combined, about 66 hours): ~22% | absolute oral bioavailability ([10]; healthy volunteers, fed conditions): 34% | Half-life ([10]; in vivo): 2 to 5 h | urinary excretion of unchanged drug or its metabolites, of total dose ([10]; in vivo): 13.7% | time to maximum plasma concentrations ([10]; oral administration): two to three | decrease in clearance ([10]; two-fold increase in bilirubin concentration): 6.9%

O=C(O)C[C@@](O)(C[C@@H](O)CCCCCCc1ccc(Cl)cc1Cl)C(=O)O [SB-201076, (2S)-2-[(2S)-8-(2,4-dichlorophenyl)-2-hydroxyoctyl]-2-hydroxybutanedioic Acid]
Ki ([3]; competitive inhibitor, humans): 1000 nM

O=C1NC(=O)[C@@H](c2cn3c4c(cccc24)CCC3)[C@@H]1c1c[nH]c2ccccc12 [ARQ-197, (3R,4R)-3-(5,6-dihydro-4H-pyrrolo[3,2,1-ij]quinolin-1-yl)-4-(1H-indol-3-yl)pyrrolidine-2,5-dione]
permeability (CaCo-2 flux data) [11]: good permeability | cell viability (FIG. 87) [5]: most pronounced | oral bioavailability [12]: greater than 20% | cell viability (FIG. 86) ([7]; Atorvastatin up to 40 μM): small decrease | mean terminal half-life (t1/2), tivantinib in plasma [13]: 11.7 h | median time to maximal concentration (tmax), tivantinib in plasma [13]: 4 h | cell viability (FIG. 85) ([8]; Atorvastatin up to 40 μM): negligible effect | cell viability (FIG. 91) ([8]; BMS-303141 up to 20 μM): minor decrease | cell viability (FIG. 84) ([9]; Atorvastatin up to 40 μM): a decrease | cell viability (FIG. 90) ([9]; BMS-303141 up to 20 μM): minor decrease

COc1ccc(-c2ccccc2)cc1NS(=O)(=O)c1cc(Cl)cc(Cl)c1O [BMS-303141, 3,5-Dichloro-2-hydroxy-N-(4-methoxy-[1,1′-biphenyl]-3-yl)-benzenesulfonamide]
cell viability (FIG. 81) [5, 18]: minimal decrease | relative growth percentage ([5]; Sorafenib 5 μM, BMS-303141 20 μM, alone or both, about 68 hours): about 78% | cell viability (FIG. 80) [7, 18]: a decrease | relative growth percentage ([7]; Sorafenib 5 μM, BMS-303141 20 μM, alone or both, about 66 hours): about 54% | relative growth percentage ([8]; ARQ-197 3 μM, about 66 hours): about 76% | cell viability (FIG. 91) ([8]; BMS-303141 up to 20 μM): minor decrease | cell viability (FIG. 79) [8, 18]: minor decrease | relative growth percentage ([8]; Sorafenib 5 μM, about 68 hours): about 76% | relative growth percentage ([9]; ARQ-197 3 μM, about 66 hours): about 105% | cell viability (FIG. 90) ([9]; BMS-303141 up to 20 μM): minor decrease | cell viability (FIG. 78) [9, 18]: negligible decrease | relative growth percentage ([9]; Sorafenib 5 μM, about 68 hours): about 105%

C[C@@H](Oc1cc(-c2cnn(C3CCNCC3)c2)cnc1N)c1c(Cl)ccc(F)c1Cl [Crizotinib, 3-[(1R)-1-(2,6-dichloro-3-fluorophenyl)ethoxy]-5-(1-piperidin-4-ylpyrazol-4-yl)pyridin-2-amine]
time to steady state ([14]; 250 mg twice daily): ≤ 15 days | reduction of AUCinf by a high-fat meal ([14]; high-fat meal): approximately 14% | reduction of Cmax by a high-fat meal ([14]; high-fat meal): approximately 14% | mean absolute bioavailability ([14]; single 250 mg oral dose): 43% | mean apparent clearance (CL/F) ([14]; single 250 mg oral dose): 100 L/h | administered dose recovered in feces [14, 19]: 63% | administered dose recovered in urine [14, 19]: 22% | unchanged crizotinib in feces, of administered dose [14, 20]: approximately 53% | unchanged crizotinib in urine, of administered dose [14, 20]: ~2.3% | mean apparent clearance (CL/F) ([14]; steady state after 250 mg twice daily): 60 L/h | patients with QTcF greater than or equal to 500 msec ([15]; 16 of 1167 patients): 1.4% | patients with increase from baseline QTcF greater than or equal to 60 msec ([15]; 51 of 1136 patients): 4.4%

CCC(C)(C)C(=O)O[C@H]1C[C@@H](C)C=C2C=C[C@H](C)[C@H](CC[C@@H]3C[C@@H](O)CC(=O)O3)[C@H]21 [Simvastatin, [(1S,3R,7S,8S,8aR)-8-[2-[(2R,4R)-4-hydroxy-6-oxooxan-2-yl]ethyl]-3,7-dimethyl-1,2,3,7,8,8a-hexahydronaphthalen-1-yl]2,2-dimethylbutanoate]
Half-life [16]: 3 h
